The values that follow come from ChEMBL document CHEMBL1201862, “PubChem BioAssay data set” (2004).

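48-hour exposure; five concentrations; linearly interpolated endpoints. Here, GI50 denotes the concentration required for 50% inhibition of growth.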 Active and inactive are the calls of the source. No stated cut-off is given here; in the data, active = GI50 up to about 1.1 µM and inactive = higher.

Common to all, as to experiment: growth of human tumour cells (NCI), 48 h
The subject of test [1] is HT-29.
The subject of test [2] is OVCAR-4.
The subject of test [3] is SW-620.
Test [4] concerns SK-OV-3.
Test [5] concerns KM12.
The test system of test [6] is OVCAR-8.
In test [7] the test system is SK-MEL-5.
The subject of test [8] is LOX IMVI.
The subject of test [9] is RPMI-8226.
Test [10] has as its system SF-268.
Test [11] concerns EKVX.
Test [12] concerns CAKI-1.
The test system of test [13] is UACC-62.
The subject of test [14] is NCI-H522.
Test [15] deals with M14.
The test system of test [16] is ACHN.
Test [17] concerns HCT-15.
Test [18] concerns HCC 2998.

For the compound `CN(Cc1ccccc1)Cn1ccnc1`, the GI50 in test [1] was 29 µM (inactive); in [2], > 100 µM (inactive); in [3], > 100 µM (inactive); in [4] it was > 100 µM (inactive); in test [5], > 100 µM (inactive); in test [6], > 100 µM (inactive). Further, the GI50 in [7] was 37.9 µM (inactive); in test [8] it was > 88.3 µM (inactive); in test [9], 29.2 µM (inactive); in test [10], > 100 µM (inactive); in test [11], > 85.1 µM (inactive); in test [12], > 100 µM (inactive). Also, the GI50 was > 100 µM (inactive) in test [13]; 89.3 µM (inactive) in test [14]; 20.5 µM (inactive) in test [15]; > 100 µM (inactive) in [16]; 59.4 µM in test [17].
For `CC(=O)N(C)CCc1c[nH]c2ccccc12`, the GI50 in test [1], in [2], in test [3], in test [4], in test [5] and in [6] was > 100 µM (inactive) in each case. For the same compound, the GI50 in test [7], in test [8], in test [9], in test [10], in test [11] and in [12] was > 100 µM (inactive) throughout. In addition, the GI50 in test [13] was > 100 µM (inactive); in test [14], > 100 µM (inactive); in test [15], > 100 µM (inactive); in test [16], > 100 µM (inactive); in [17] it was over 100 µM.
In the case of `O=C1C(NCCF)=C(Cl)C(=O)c2ncccc21`, the GI50 in test [1] is 2.47 µM (inactive); in test [3], 0.378 µM (active); in test [4], 1.77 µM (inactive); in test [5], 1.54 µM (inactive); in test [6] it was 0.8 µM (active); in test [7] it was 0.145 µM (active). Moreover, the GI50 in test [8] is 0.284 µM (active); in test [9] it was 0.49 µM (active); in test [10] it was 1.5 µM (inactive); in test [11], 1.71 µM (inactive); in test [13], 0.247 µM (active); in [15], 0.869 µM (active). For the same compound, the GI50 was 1.53 µM (inactive) in test [16], 1.21 µM (inactive) in test [18] and 0.461 µM in test [17].
For the compound `COc1ccc(/C=C2\OC(=O)C(Cl)=C2c2ccc(OC)cc2)cc1`, the GI50 is > 100 µM (inactive) in [1]; 86.9 µM (inactive) in test [2]; > 100 µM (inactive) in [3]; > 100 µM (inactive) in [4]; > 100 µM (inactive) in test [5]; 85.7 µM (inactive) in test [6]. Also, the GI50 in test [7] was > 100 µM (inactive); in [8] it was > 100 µM (inactive); in [9] it was > 100 µM (inactive); in [10], 40.4 µM (inactive); in test [11] it was > 100 µM (inactive); in test [12], > 100 µM (inactive). For the same compound, the GI50 is > 100 µM (inactive) in test [13]; 66.2 µM (inactive) in [14]; > 100 µM (inactive) in test [15]; > 100 µM (inactive) in test [16]; over 100 µM in [17].
Take `O=C(O)CSc1n[nH]c(=O)[nH]c1=O`: the GI50 in [1], in test [2], in test [3], in test [4], in test [5] and in test [6] was > 100 µM (inactive) each time. For the same compound, the GI50 in [7], in test [8], in test [9], in [10], in test [11] and in test [12] was > 100 µM (inactive) in each case. The GI50 in test [13] was > 100 µM (inactive); in test [14] it was > 100 µM (inactive); in test [15], > 100 µM (inactive); in [16] it was > 100 µM (inactive); in test [17], over 100 µM.
With `CN1CCc2c(sc3ncn(C)c(=N)c23)C1`, the GI50 in test [1], in test [2], in test [3], in test [4], in [5] and in test [6] was > 100 µM (inactive) throughout. In addition, the GI50 in test [7], in test [8], in [9], in test [10], in [11] and in test [12] was > 100 µM (inactive) each time. For the same compound, the GI50 in test [13] was > 100 µM (inactive); in [14], > 100 µM (inactive); in [15] it was > 100 µM (inactive); in [16], > 100 µM (inactive); in [17] it was over 100 µM.
In the case of `Cc1ccc(CC(=O)Nc2ccc(NC(=O)/C=C/NC(=O)/C=C/c3ccc(-c4ccccc4)cc3)cc2C(=O)c2ccccc2)cc1`, the GI50 was 5.06 µM (inactive) in test [1]; 1.48 µM (inactive) in test [2]; 1.57 µM (inactive) in test [3]; 1.85 µM (inactive) in [4]; 2.93 µM (inactive) in test [5]; 0.871 µM (active) in test [6]. The GI50 in [7] was 2.09 µM (inactive); in test [8] it was 2.03 µM (inactive); in test [9] it was 2.4 µM (inactive); in [10] it was 2.62 µM (inactive); in test [11], 1.32 µM (inactive); in test [12] it was 3.29 µM (inactive). Besides, the GI50 was 2.16 µM (inactive) in test [13]; 2.56 µM (inactive) in test [15]; 3.08 µM (inactive) in test [16]; 0.0237 µM (active) in test [18]; 2.7 µM in test [17].
For `O=S(=O)(NC(c1ccccc1)(c1cc2ccccc2[nH]1)c1cc2ccccc2n1S(=O)(=O)c1ccccc1)c1ccccc1` (stereo not given), the GI50 in test [1] was > 100 µM (inactive); in test [2], > 100 µM (inactive); in test [3], > 100 µM (inactive); in test [4], 0.292 µM (active); in test [5] it was > 100 µM (inactive); in test [6] it was > 100 µM (inactive). Moreover, the GI50 in [7] is > 100 µM (inactive); in [8] it was > 100 µM (inactive); in [9] it was 52.1 µM (inactive); in test [10], > 100 µM (inactive); in [11], > 100 µM (inactive); in test [12], > 100 µM (inactive). The GI50 was > 100 µM (inactive) in [13], 62.2 µM (inactive) in test [15], > 100 µM (inactive) in test [18] and over 100 µM in test [17].
Turning to `COc1c(-c2nc3ccc(N4CCN(C)CC4)cc3[nH]2)cc(OC)c2[nH]c(CO)nc12`, the GI50 is 79.8 µM (inactive) in test [1]; 72.6 µM (inactive) in test [2]; 74.8 µM (inactive) in test [3]; > 100 µM (inactive) in test [4]; 49.3 µM (inactive) in [5]; > 100 µM (inactive) in [6]. Moreover, the GI50 is > 100 µM (inactive) in test [7]; 88.5 µM (inactive) in test [8]; > 100 µM (inactive) in test [9]; > 100 µM (inactive) in test [10]; > 100 µM (inactive) in [11]; > 100 µM (inactive) in [12]. Also, the GI50 is > 100 µM (inactive) in test [13]; 65.2 µM (inactive) in [14]; > 100 µM (inactive) in test [15]; > 100 µM (inactive) in test [16]; over 100 µM in test [17].
